Target: T1, human wild-type (WT)-pendrin (Homo sapiens, UniProt O43511)
T1 construct: expressed in transfected cells
T1 sequence (O43511 1-780): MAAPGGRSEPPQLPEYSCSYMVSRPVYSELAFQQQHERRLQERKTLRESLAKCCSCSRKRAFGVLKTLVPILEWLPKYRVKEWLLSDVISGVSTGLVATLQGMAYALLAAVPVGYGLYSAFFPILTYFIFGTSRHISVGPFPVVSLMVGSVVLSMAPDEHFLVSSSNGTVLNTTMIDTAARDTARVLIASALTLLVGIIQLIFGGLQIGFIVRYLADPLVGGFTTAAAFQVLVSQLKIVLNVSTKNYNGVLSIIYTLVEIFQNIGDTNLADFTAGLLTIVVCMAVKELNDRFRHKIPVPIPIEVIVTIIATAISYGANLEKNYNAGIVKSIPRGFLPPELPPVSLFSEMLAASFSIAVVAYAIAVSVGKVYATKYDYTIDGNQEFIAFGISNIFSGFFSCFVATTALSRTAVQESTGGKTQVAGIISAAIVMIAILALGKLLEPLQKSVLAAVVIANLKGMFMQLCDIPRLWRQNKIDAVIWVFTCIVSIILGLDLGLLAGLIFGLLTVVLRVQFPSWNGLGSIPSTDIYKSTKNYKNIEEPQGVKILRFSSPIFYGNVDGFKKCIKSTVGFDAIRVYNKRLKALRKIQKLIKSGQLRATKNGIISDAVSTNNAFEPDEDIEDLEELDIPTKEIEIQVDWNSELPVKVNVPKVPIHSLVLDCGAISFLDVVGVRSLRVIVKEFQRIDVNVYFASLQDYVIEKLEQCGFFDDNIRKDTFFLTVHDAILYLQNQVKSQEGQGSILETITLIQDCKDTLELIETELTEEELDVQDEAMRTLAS
Assay: Pendrin Cl−/I− exchange inhibitory activity, YFP fluorescence in CHO-K1 cells
Assay type: cell-based
Settings: CHO-K1; for inhibition at 1 µM: compound concentration 1 μM; for inhibition at 3 µM: compound concentration 3 μM; for inhibition at 10 µM: compound concentration 10 μM; for inhibition at 30 µM: compound concentration 30 μM; for inhibition at 100 µM: compound concentration 100 μM
Method: Chinese hamster ovary (CHO)-K1 cells were cultured in DMEM medium containing 10% fetal bovine serum (FBS), 100 units/ml of penicillin and 100 μg/ml streptomycin. CHO-K1 cells were stably transfected with pcDNA3.1 encoding the halide sensor YFP-H148Q/I152L/F46L and human wild-type (WT)-pendrin.
(§1) CHO-K1 cells expressing human WT pendrin and YFP-F46L/H148Q/I152L were plated in 96-well microplates at a density of 2×10^4 cells per well, and cultured for 48 hours. Each well of the cell cultured 96-well plate was washed 2 times with 200 μL of PBS, and filled with 50 μL of HEPES buffered solution (140 mM NaCl, 5 mM KCl, 1 mM MgCl2, 1 mM CaCl2), 10 mM glucose and 10 mM HEPES (pH 7.4)). Test compounds (1 μL) were added to a final concentration of 1, 3, 10, 30 and 100 μM. After culturing at 37° C. for 10 minutes, the 96-well plate was located on the FLUOstar Omega Microplate Reader (BMG Labtech, Ortenberg, Germany) for a fluorescence assay. Fluorescence was recorded continuously (400 ms per point) for 1 second (baseline), whereby each well was assayed individually for pendrin-mediated I-influx. Then 50 μL of Na-substituted HEPES buffered solution (replacing NaCl with NaI) was added using a liquid injector at 1 second, and YFP fluorescence was recorded for 5 seconds. The initial iodide influx rate was determined from the initial slope of fluorescence by nonlinear regression, after the injection of iodide.
as §1, with “Chinese hamster ovary (CHO)-K1 cells were cultured in DMEM medium containing 10% fetal bovine serum (FBS), 100 units/ml of penicillin and 100 μg/ml streptomycin. CHO-K1 cells were stably transfected with pcDNA3.1 encoding the halide sensor YFP-H148Q/I152L/F46L and human wild-type (WT)-pendrin. 3-2: Assay of Cl^−/I^− exchange activity CHO-K1” for “CHO-K1”, “50” for “1, 3, 10, 30 and 100”, “Then,” for “Then”, “NaI-substituted” for “Na-substituted”

Structure (SMILES) | inhibition at 1 µM | inhibition at 3 µM | inhibition at 10 µM | inhibition at 30 µM | inhibition at 100 µM
CC(C)(C)OC(=O)N1CCN(C(=O)Cc2c(C(=O)O)[nH]c3ccc(Cl)cc23)CC1 [YPI-A4879, 3-(2-(4-(tert-butoxycarbonyl)piperazin-1-yl)-2-oxoethyl)-5-chloro-1H-indole-2-carboxylic acid] | < 20% | < 20% | < 20% | < 20% | < 20%
O=C(O)c1[nH]c2ccc(Cl)cc2c1CC(=O)N1CCN(c2ccc(Cl)cc2)CC1 [YPI-A4843, 5-Chloro-3-(2-(4-(4-chlorophenyl)piperazin-1-yl)-2-oxoethyl)-1H-indole-2-carboxylic acid] | < 20% | < 20% | 40.3% | 91.4% | 92.1%
O=C(O)c1[nH]c2ccc(Cl)cc2c1CC(=O)N1CCN(c2cc(Cl)c(Cl)c(Cl)c2)CC1 [YPI-A4916, 5-Chloro-3-(2-oxo-2-(4-(3,4,5-trichlorophenyl)piperazin-1-yl)ethyl)-1H-indole-2-carboxylic acid] | < 20% | 45.7% | 82.6% | 90.9% | 91.4%
O=C(O)c1[nH]c2ccc(Cl)cc2c1CC(=O)N1CCN(c2cccc(Br)c2)CC1 [YPI-A4845, 3-(2-(4-(3-Bromophenyl)piperazin-1-yl)-2-oxoethyl)-5-chloro-1H-indole-2-carboxylic acid] | < 20% | < 20% | 35.1% | 88.8% | –
O=C(O)c1[nH]c2ccc(Cl)cc2c1CC(=O)N1CCN(c2ccc(Cl)cc2Cl)CC1 [YPI-A4887, 5-Chloro-3-(2-(4-(2,4-dichlorophenyl)piperazin-1-yl)-2-oxoethyl)-1H-indole-2-carboxylic acid] | < 20% | 50.8% | 89.3% | 89.5% | 89.9%
CC1CN(C(=O)Cc2c(C(=O)O)[nH]c3ccc(Cl)cc23)CCN1c1ccccc1 (centres unmarked) [YPI-A4883, 5-Chloro-3-(2-(3-methyl-4-phenylpiperazin-1-yl)-2-oxoethyl)-1H-indole-2-carboxylic acid] | < 20% | < 20% | < 20% | < 20% | < 20%
COc1ccc(Cl)c(N2CCN(C(=O)Cc3c(C(=O)O)[nH]c4ccc(Cl)cc34)CC2)c1 [YPI-A4886, 5-Chloro-3-(2-(4-(2-chloro-5-methoxyphenyl)piperazin-1-yl)-2-oxoethyl)-1H-indole-2-carboxylic acid] | < 20% | < 20% | 33.7% | 66.2% | 79.9%
O=C(O)c1ccc(N2CCN(C(=O)Cc3c(C(=O)O)[nH]c4ccc(Cl)cc34)CC2)cc1 [YPI-A4919, 3-(2-(4-(4-Carboxyphenyl)piperazin-1-yl)-2-oxoethyl)-5-chloro-1H-indole-2-carboxylic acid] | < 20% | < 20% | < 20% | < 20% | < 20%
COc1ccc(N2CCN(C(=O)Cc3c(C(=O)O)[nH]c4ccc(Cl)cc34)CC2)cc1 [YPI-A4878, 5-Chloro-3-(2-(4-(4-methoxyphenyl)piperazin-1-yl)-2-oxoethyl)-1H-indole-2-carboxylic acid] | < 20% | < 20% | < 20% | < 20% | 79.4%

Further lines, results first:

inhibition at 1 µM | inhibition at 3 µM | inhibition at 10 µM | inhibition at 30 µM | inhibition at 100 µM | Structure (SMILES)
< 20% | < 20% | < 20% | < 20% | 78.3% | O=C(O)c1[nH]c2ccc(Cl)cc2c1CC(=O)N1CCN(c2ccccc2F)CC1 [YPI-A4917, 5-Chloro-3-(2-(4-(2-fluorophenyl)piperazin-1-yl)-2-oxoethyl)-1H-indole-2-carboxylic acid]
< 20% | < 20% | 40.8% | 41.3% | 41.9% | Cc1cc(C)c2[nH]c(C(=O)O)c(CC(=O)N3CCN(c4c(C)cccc4C)CC3)c2c1 [YPI-A4947, 3-(2-(4-(2,6-dimethylphenyl)piperazin-1-yl)-2-oxoethyl)-5,7-dimethyl-1H-indole-2-carboxylic acid]
< 20% | < 20% | 51.4% | 88.9% | – | Cc1cccc(C)c1N1CCN(C(=O)Cc2c(C(=O)O)[nH]c3ccc(F)cc23)CC1 [YPI-A4964, 3-(2-(4-(2,6-Dimethylphenyl)piperazin-1-yl)-2-oxoethyl)-5-fluoro-1H-indole-2-carboxylic acid]
39.9% | 74.5% | 100% | 100% | 100% | Cc1cccc(C)c1N1CCN(C(=O)Cc2c(C(=O)O)[nH]c3ccc(Cl)cc23)CC1 [YPI-A4783, 5-Chloro-3-(2-(4-(2,6-dimethylphenyl)piperazin-1-yl)-2-oxoethyl)-1H-indole-2-carboxylic acid]
42.8% | 75.2% | 97.6% | 98.1% | 98.4% | Cc1cccc(Cl)c1N1CCN(C(=O)Cc2c(C(=O)O)[nH]c3ccc(Cl)cc23)CC1 [YPI-A4880, 5-Chloro-3-(2-(4-(2-chloro-6-methylphenyl)piperazin-1-yl)-2-oxoethyl)-1H-indole-2-carboxylic acid]
< 20% | < 20% | < 20% | 65.2% | 93.3% | O=C(O)c1[nH]c2ccc(Cl)cc2c1CC(=O)N1CCN(c2ccc(F)cc2F)CC1 [YPI-A4915, 5-Chloro-3-(2-(4-(2,4-difluorophenyl)piperazin-1-yl)-2-oxoethyl)-1H-indole-2-carboxylic acid]
< 20% | < 20% | < 20% | 58.9% | 90.5% | Cc1cccc(N2CCN(C(=O)Cc3c(C(=O)O)[nH]c4ccc(Cl)cc34)CC2)c1 [YPI-A4848, 5-Chloro-3-(2-oxo-2-(4-(m-tolyl)piperazin-1-yl)ethyl)-1H-indole-2-carboxylic acid]
< 20% | < 20% | 60.6% | 91.5% | 92.4% | Cc1ccccc1N1CCN(C(=O)Cc2c(C(=O)O)[nH]c3ccc(Cl)cc23)CC1 [YPI-A4847, 5-Chloro-3-(2-oxo-2-(4-(o-tolyl)piperazin-1-yl)ethyl)-1H-indole-2-carboxylic acid]
